# Assay results taken from US20210128566A1, “NOVEL FUNCTIONALIZED PURINE-2,6-DIONES AND THEIR USE IN MEDICINE” (THOMAS HELLEDAYS STIFTELSE FÖR MEDICINSK FORSKNING, priority 2017, published 2021).
# Molecular target: recombinant human NUDT5 (Homo sapiens, UniProt Q9UKK9)
# Test: NUDT5 inhibitor activity by malachite green reporter assay
# Format: biochemical
# Settings: Table 3; 6 nM NUDT5, 50 μM ADP-Ribose, 15 minutes at room temperature
# Protocol: NUDT5 inhibitors were evaluated using a coupled enzymatic assay with detection of inorganic phosphate (Pi) using the malachite green assay. Following enzymatic hydrolysis of ADP-Ribose (Sigma-Aldrich A0572) by NUDT5, to yield AMP and ribose-5-phosphate, the latter product is continuously processed by a significant excess of alkaline phosphatase (Sigma-Aldrich, P0114). Formation of Pi is quantified based on the green complex (that absorbs at 630 nm) formed between malachite green and molybdate according to published procedure (Baykov, A. A., Evtushenko, O. A. and Avaeva, S. M., Anal Biochem, 171, 266-270 (1988)). Assay buffer consisted of 10 mM Tris-acetate at pH 8.0, 40 mM sodium chloride, 10 mM magnesium acetate, 0.005% Tween-20 and 1 mM dithiothreitol (DTT). The final conditions consisted of 6 nM recombinant human NUDT5, 50 μM ADP-Ribose and 10 U/ml of calf intestine alkaline phosphatase. The plates with compounds, enzymes and substrate were incubated at room temperature for 15 minutes, after which the reaction was terminated and the signal developed by the addition of the malachite green reagent using a MultiDrop (Thermo Scientific). Following vigorous shaking on plate shakers for a minimum of eight minutes the absorbance was read in a microplate reader (HidexSense) using a filter at 630 nm and a read time of 0.1 s per well. Inhibitors were used in dilutions from 100 μM to 1.7 nM in 3-fold dilution steps. Experiments were run in duplicate and confirmed in two independent experiments. IC50 values were determined by curve fitting using ExcelFit.
row,Structure (SMILES),IC50
1,"Cn1c(=O)c2c(nc(N3CCCNCC3)n2Cc2nnc(-c3ccc(Cl)c(Cl)c3)o2)n(C)c1=O [Example 27, 8-(1,4-diazepan-1-yl)-7-{[5-(3,4-dichlorophenyl)-1,3,4-oxadiazol-2-yl]methyl}-1,3-dimethyl-2,3,6,7-tetrahydro-1H-purine-2,6-dione]",0.0193 µM
2,"Cn1c(=O)c2c(nc(N3CCC(CCO)CC3)n2Cc2nnc(-c3ccc(Cl)c(Cl)c3)o2)n(C)c1=O [Example 20, 7-{[5-(3,4-dichlorophenyl)-1,3,4-oxadiazol-2-yl]methyl}-8-[4-(2-hydroxyethyl)piperidin-1-yl]-1,3-dimethyl-2,3,6,7-tetrahydro-1H-purine-2,6-dione]",0.03 µM
3,"C[C@H]1CN(c2nc3c(c(=O)n(C)c(=O)n3C)n2Cc2nnc(-c3ccc(Cl)c(Cl)c3)o2)CCN1 [Example 46, 7-{[5-(3,4-dichlorophenyl)-1,3,4-oxadiazol-2-yl]methyl}-1,3-dimethyl-8-[(3S)-3-methylpiperazin-1-yl]-2,3,6,7-tetrahydro-1H-purine-2,6-dione]",0.012 µM
4,"Cn1c(=O)c2c(nc(N3CCN(CCN)CC3)n2Cc2nnc(-c3ccc(Cl)c(Cl)c3)o2)n(C)c1=O [Example 30, 8-[4-(2-aminoethyl)piperazin-1-yl]-7-{[5-(3,4-dichlorophenyl)-1,3,4-oxadiazol-2-yl]methyl}-1,3-dimethyl-2,3,6,7-tetrahydro-1H-purine-2,6-dione]",0.0332 µM
5,"Cn1c(=O)c2c(nc(N3CCN(CCO)CC3)n2Cc2nnc(-c3ccc(Cl)c(Cl)c3)o2)n(C)c1=O [Example 31, 7-{[5-(3,4-dichlorophenyl)-1,3,4-oxadiazol-2-yl]methyl}-8-[4-(2-hydroxyethyl)piperazin-1-yl]-1,3-dimethyl-2,3,6,7-tetrahydro-1H-purine-2,6-dione]",0.106 µM
6,"Cn1c(=O)c2c(nc(N3CC4CCCCC4C3)n2Cc2nnc(-c3ccc(Cl)c(Cl)c3)o2)n(C)c1=O (stereo not drawn) [Example 11, 7-{[5-(3,4-dichlorophenyl)-1,3,4-oxadiazol-2-yl]methyl}-1,3-dimethyl-8-(octahydro-1H-isoindol-2-yl)-2,3,6,7-tetrahydro-1H-purine-2,6-dione]",0.0846 µM
7,"Cn1c(=O)c2c(nc(N3CC4(COC4)C3)n2Cc2nnc(-c3ccc(Cl)c(Cl)c3)o2)n(C)c1=O [Example 12, 7-{[5-(3,4-dichlorophenyl)-1,3,4-oxadiazol-2-yl]methyl}-1,3-dimethyl-8-{2-oxa-6-azaspiro[3.3]heptan-6-yl}-2,3,6,7-tetrahydro-1H-purine-2,6-dione]",0.0425 µM
8,"Cn1c(=O)c2c(nc(N3CCN(C(=O)OC(C)(C)C)CC3)n2Cc2nnc(-c3ccc(Cl)c(Cl)c3)o2)n(C)c1=O [Example 14, tert-butyl 4-(7-{[5-(3,4-dichlorophenyl)-1,3,4-oxadiazol-2-yl]methyl}-1,3-dimethyl-2,6-dioxo-2,3,6,7-tetrahydro-1H-purin-8-yl)piperazine-1-carboxylate]",0.164 µM

# Same assay, conditions: Table 4; 6 nM NUDT5, 50 μM ADP-Ribose, 15 minutes at room temperature
row,Structure (SMILES),IC50
1,"COc1ccc(-c2nnc(Cn3c(Cl)nc4c3c(=O)n(C)c(=O)n4C)o2)cc1OC [Example 104, 8-chloro-7-{[5-(3,4-dimethoxyphenyl)-1,3,4-oxadiazol-2-yl]methyl}-1,3-dimethyl-2,3,6,7-tetrahydro-1H-purine-2,6-dione]",> 100 µM
2,"COc1cc(-c2nnc(Cn3c(Cl)nc4c3c(=O)n(C)c(=O)n4C)o2)ccc1Cl [Example 98, 8-chloro-7-{[5-(4-chloro-3-methoxyphenyl)-1,3,4-oxadiazol-2-yl]methyl}-1,3-dimethyl-2,3,6,7-tetrahydro-1H-purine-2,6-dione]",0.378 µM
3,"COc1ccc(-c2nnc(Cn3c(Cl)nc4c3c(=O)n(C)c(=O)n4C)o2)cc1 [Example 73, 8-chloro-7-{[5-(4-methoxyphenyl)-1,3,4-oxadiazol-2-yl]methyl}-1,3-dimethyl-2,3,6,7-tetrahydro-1H-purine-2,6-dione]",1.26 µM
4,"Cn1c(=O)c2c(nc(Cl)n2Cc2nnc(-c3cccc(F)c3)o2)n(C)c1=O [Example 91, 8-chloro-7-{[5-(3-fluorophenyl)-1,3,4-oxadiazol-2-yl]methyl}-1,3-dimethyl-2,3,6,7-tetrahydro-1H-purine-2,6-dione]",2.15 µM
5,"Cn1c(=O)c2c(nc(N3CCC(CNC(=O)OC(C)(C)C)CC3)n2Cc2nnc(-c3ccc(Cl)c(Cl)c3)o2)n(C)c1=O [Example 65, tert-butyl N-{[1-(7-{[5-(3,4-dichlorophenyl)-1,3,4-oxadiazol-2-yl]methyl}-1,3-dimethyl-2,6-dioxo-2,3,6,7-tetrahydro-1H-purin-8-yl)piperidin-4-yl]methyl}carbamate]",0.0338 µM
6,"COc1ccc(-c2nnc(Cn3c(Cl)nc4c3c(=O)n(C)c(=O)n4C)o2)cc1Cl [Example 99, 8-chloro-7-{[5-(3-chloro-4-methoxyphenyl)-1,3,4-oxadiazol-2-yl]methyl}-1,3-dimethyl-2,3,6,7-tetrahydro-1H-purine-2,6-dione]",0.073 µM
7,"Cn1c(=O)c2c(nc(N3CCNCC3)n2Cc2nnc(-c3ccccc3)o2)n(C)c1=O [Example 107, 1,3-dimethyl-7-[(5-phenyl-1,3,4-oxadiazol-2-yl)methyl]-8-(piperazin-1-yl)-2,3,6,7-tetrahydro-1H-purine-2,6-dione]",0.212 µM
8,"Cn1c(=O)c2c(nc(Cl)n2Cc2nnc(-c3ccc(CS(C)(=O)=O)cc3)o2)n(C)c1=O [Example 103, 8-chloro-7-({5-[4-(methanesulfonylmethyl)phenyl]-1,3,4-oxadiazol-2-yl}methyl)-1,3-dimethyl-2,3,6,7-tetrahydro-1H-purine-2,6-dione]",61.6 µM

# Other lines, results leading:
row,IC50,Structure (SMILES)
1,29 µM,"Cn1c(=O)c2c(nc(N3CCNCC3)n2Cc2nnc(-c3ccc(N4CCNCC4)nc3)o2)n(C)c1=O [Example 114, 1,3-dimethyl-8-(piperazin-1-yl)-7-({5-[6-(piperazin-1-yl)pyridin-3-yl]-1,3,4-oxadiazol-2-yl}methyl)-2,3,6,7-tetrahydro-1H-purine-2,6-dione]"
2,0.0492 µM,"COc1cc(-c2nnc(Cn3c(SCCN)nc4c3c(=O)n(C)c(=O)n4C)o2)ccc1C [Example 142, 8-[(2-aminoethyl)sulfanyl]-7-{[5-(3-methoxy-4-methylphenyl)-1,3,4-oxadiazol-2-yl]methyl}-1,3-dimethyl-2,3,6,7-tetrahydro-1H-purine-2,6-dione]"
3,0.205 µM,"COc1cc(-c2nnc(Cn3c(N4CCC(CO)CC4)nc4c3c(=O)n(C)c(=O)n4C)o2)ccc1C [Example 130, 8-[4-(hydroxymethyl)piperidin-1-yl]-7-{[5-(3-methoxy-4-methylphenyl)-1,3,4-oxadiazol-2-yl]methyl}-1,3-dimethyl-2,3,6,7-tetrahydro-1H-purine-2,6-dione]"
4,0.255 µM,Cn1c(=O)c2c(nc(N3CCNCC3)n2Cc2nnc(-c3ccc(C#N)cc3)o2)n(C)c1=O [Example 112]
5,0.129 µM,"Cn1c(=O)c2c(nc(N3CCNCC3)n2Cc2nnc(-c3cccc(F)c3)o2)n(C)c1=O [Example 110, 7-{[5-(3-fluorophenyl)-1,3,4-oxadiazol-2-yl]methyl}-1,3-dimethyl-8-(piperazin-1-yl)-2,3,6,7-tetrahydro-1H-purine-2,6-dione]"
6,24.4 µM,"Cn1c(=O)c2c(nc(N3CCNCC3)n2Cc2nnc(-c3ccc(CS(C)(=O)=O)cc3)o2)n(C)c1=O [Example 122, 7-({5-[4-(methanesulfonylmethyl)phenyl]-1,3,4-oxadiazol-2-yl}methyl)-1,3-dimethyl-8-(piperazin-1-yl)-2,3,6,7-tetrahydro-1H-purine-2,6-dione]"
7,0.128 µM,"COc1cc(-c2nnc(Cn3c(NCC4CCN(C(=N)N)CC4)nc4c3c(=O)n(C)c(=O)n4C)o2)ccc1C [Example 128, 4-{[(7-{[5-(3-methoxy-4-methylphenyl)-1,3,4-oxadiazol-2-yl]methyl}-1,3-dimethyl-2,6-dioxo-2,3,6,7-tetrahydro-1H-purin-8-yl)amino]methyl}piperidine-1-carboximidamide]"
8,0.155 µM,"Cn1c(=O)c2c(nc(N3CCNCC3)n2Cc2cn(-c3ccc(Cl)c(Cl)c3)nn2)n(C)c1=O [Example 144, 7-{[1-(3,4-dichlorophenyl)-1H-1,2,3-triazol-4-yl]methyl}-1,3-dimethyl-8-(piperazin-1-yl)-2,3,6,7-tetrahydro-1H-purine-2,6-dione]"
9,0.0357 µM,"COc1cc(-c2nnc(Cn3c(N4CCNCC4)nc4c3c(=O)n(C)c(=O)n4C)o2)ccc1C [Example 119, 7-{[5-(3-methoxy-4-methylphenyl)-1,3,4-oxadiazol-2-yl]methyl}-1,3-dimethyl-8-(piperazin-1-yl)-2,3,6,7-tetrahydro-1H-purine-2,6-dione]"
10,1.69 µM,"Cn1c(=O)c2c(nc(N3CCNCC3)n2Cc2nnc(-c3cccnc3)o2)n(C)c1=O [Example 113, 1,3-dimethyl-8-(piperazin-1-yl)-7-{[5-(pyridin-3-yl)-1,3,4-oxadiazol-2-yl]methyl}-2,3,6,7-tetrahydro-1H-purine-2,6-dione]"
11,0.0642 µM,"COc1cc(-c2nnc(Cn3c(N4CCNCC4)nc4c3c(=O)n(C)c(=O)n4C)o2)ccc1Cl [Example 117, 7-{[5-(4-chloro-3-methoxyphenyl)-1,3,4-oxadiazol-2-yl]methyl}-1,3-dimethyl-8-(piperazin-1-yl)-2,3,6,7-tetrahydro-1H-purine-2,6-dione]"
